Results reported in patent US20070244071A1, “Treatment of proliferative diseases” (MOUNT SINAI HOSPITAL, priority 2006, published 2007).

Experiments:
[1] = tested on: TGF-β induced Smad2/3 nuclear translocation; assay: TGF-β-dependent Smad2/3 nuclear translocation assay in NMuMG cells; format: cell-based, Murine
Description: NMuMG epithelial cells were plated in 96 well Coming tissue plates (Coming) at a density of 5000 cells/well in 100 μl of DMEM, 10% FBS, 10 μg/ml insulin (Gibco) for 24 h. The medium was replaced with 100 μl of DMEM, 10 μg/ml insulin, 0.2 mg/ml BSA (fraction V) for 18 h. Test compounds at 10 μM were added and cells were incubated for 60 min at 37° C. TGF-β1 (R&D System, Minneapolis, Minn.) was added at 50 pM and incubated for a further 50 min. Cells were then fixed with 4% paraformaldehyde in PBS for 15 min and washed 3 times in PBS. Cells were permeabilized with 100% methanol for 2 min, then washed 3 times with PBS, followed by the addition of 150 μl PBS, 10% FBS. Plates were stored overnight at 4° C. Anti-Smad2/3 or anti-phospho-Smad2 antibodies (Transduction Laboratories, San Jose, Calif.) diluted 1:1000 in PBS plus 10% FBS were added at 50 μl/well and the plates were incubated for 1 h at 20° C. […] The wells were washed 3 times with PBS and imaged and quantified on the Array Scan (Cellomics Inc., Pittsburgh, Pa.) using the cytoplasmic-nuclear translocation program. To measure Erk phosphorylation (Erk-p) and nuclear translocation, mouse anti-phospho-Erkl/2 (Thr202/Tyr204) (Sigma, St. Louis, Mo.) was added at 1/1000 in PBS plus 10% FBS for 1 h at 20° C. The nuclear-cytoplasmic difference was determined for 100 cells per well, generating a mean±SE for each condition.

[2] = tested on: Mgat5^+/+(2.6) mammary carcinoma cells; assay: Nuclear Smad2/3 and Erk-p (TGF-β / EGF sensitivity) in Mgat5^+/+(2.6) cells; format: cell-based, mice; conditions: Mgat5^+/+(2.6) cells in culture, 1% FBS, steady state
MvLu cells = assay: Steady-state nuclear Smad2-p and Erk-p, MvLu cells; format: cell-based; conditions: MvLu cells in culture, 1% FBS
[3] = tested on: non-transformed MvLu epithelial cells; assay: Cytotoxicity / cell growth assay, MvLu cells; format: cell-based; conditions: increasing concentrations, DMEM 1% FBS, AlamarBlue, 72 h (source says 48 h)
Description: In brief, 1000 cells/well were seeded in 96 well plates and cultured for 24 h prior to the addition of DAM-1976. Viable cells were measured at 48 or 72 h by adding of either XTT or AlamarBlue with further incubation at 37° C. For the XTT assay, absorbance was measured at 500 nm, 4 h after addition of XTT. Fluorescence with excitation at 544 nm and emission at 590 nm were measured 24 h after addition of AlamarBlue.

DR26 cells = assay: Steady-state nuclear Smad2-p and Erk-p, DR26 cells; format: cell-based; conditions: DR26 cells in culture, 1% FBS

TGF-β: transforming growth factor-beta cytokine; TGF-β1 (R&D System) used as stimulus and growth comparator
increase in nuclear Smad2/3 protein ([1]; 20 min after addition of cytokine, sustained until 50 min): 10 fold | saturation of Smad2/3 nuclear translocation ([1]; dose of 50 pM): ~80% | basal nuclear Erk-p [2]: enhanced | basal nuclear Smad2-p [2]: not altered | basal nuclear Erk-p (MvLu cells): a decline or no change | basal nuclear Smad2-p (MvLu cells): increased slightly | cell growth (cell number) [3]: inhibited | basal nuclear Erk-p (DR26 cells): a decline or no change | basal nuclear Smad2-p (DR26 cells): not altered
